From patent US20020091086A1, “Peptides that block viral infectivity and methods of use thereof” (priority 1999, published 2002)
Where two headings read alike, the source gives them in different places. Peptide text beside a SMILES is read from it.

Assays:
HIV-1 [1] = conditions: for reduction of HIV-1 infectivity, p24 antigen in cell supernatants: Table 6; for p24 / p24 (OD) / reduction (%): Experiment 5, H9 cells
Protocol: In Experiment 5, (Table 6) approximately 200,000 H9 cells were infected with HIV-1 at 25 TCID50 to test the inhibitory effect of different concentrations of peptides GPG-NH2, GKG-NH2 and CQG-NH2 and combinations of these peptides. As above, H9 cells were resuspended with or without the different peptides at varying concentrations in 1 ml of RPMI 1640 medium supplemented with 10% (v/v) heat-inactivated fetal bovine serum (FBS), penicillin (100 u/ml), streptomycin (100 u/ml), and Polybrene (2 μg/ml). Thereafter, viruses were added at 25 TCID50 in a volume of 20-30 μl. Cells were incubated with the indicated virus at 37° C. for 1 hr then pelleted at 170×g for 7 minutes. The cells were then washed three times in RPMI medium without peptides at room temperature and pelleted at 170×g for 7 minutes, as above. After the final wash, the cells were resuspended in RPMI culture medium containing the peptides in a 24-well plate (Costar corporation) and kept at 37° C. in 5% CO2 with humidity.
Culture supernatants were collected when the medium was changed at 4, 7, and 14 days post infection. The replication of each virus was monitored by detecting the presence of p24 in the supernatants. HIV p24 antigen was determined using a commercially available HIV p24 antigen detection kit (Abbott). The results are presented as absorbance values (OD) and higher absorbance indicates a higher protein concentration and greater viral infection. In some cases, serial dilutions of the supernatants were made so as to more accurately detect p24 concentration.
The percent reduction tabulated in Table 6 was calculated by dividing amount of p24 antigen detected in the peptide-treated sample by the amount of p24 antigen detected in the control sample, multiplying this dividend by 100 to obtain a percentage, and subtracting the dividend percentage by 100%.

HIV-1 [2] = conditions: 100 μM, H9 cells
From the text: In this example, the methods that were used to analyze the ability of various tripeptides to inhibit HIV-1, HIV-2, and SIV replication are disclosed. In Experiments 1 and 2, approximately 200,000 H9 cells were infected with HIV-1, HIV-2 or SIV at 25 TCID50 to test the inhibitory effect of the following synthesized tripeptides LKA-NH2, ILK-NH2, GPQ-NH2, GHK-NH2, GKG-NH2, ACQ-NH2, CQG-NH2, ARV-NH2, KAR-NH2, HKA-NH2, GAT-NH2, KAL-NH2, and GPG-NH2. Accordingly, the H9 cells were resuspended with or without the different peptides (approximately 100 μM) in 1 ml of RPMI 1640 medium supplemented with 10% (v/v) heat-inactivated fetal bovine serum (FBS), penicillin (100 u/ml), and streptomycin (100 u/ml), all available through GIBCO, and Polybrene (2 μg/ml), available through Sigma. Thereafter, viruses were added at 25 TCID50 in a volume of 20-30μl. Cells were incubated with virus at 37° C. for 1 hr then pelleted at 170×g for 7 minutes. The cells were then washed three times in RPMI medium without peptides at room temperature and pelleted at 170×g for 7 minutes, as above. After the final wash, the cells were resuspended in RPMI culture medium containing the peptides in a 24-well plate (Costar corporation) and were kept at 37° C. in 5% CO2 with humidity.
Culture supernatants were collected and analyzed when the medium was changed at 4, 7, 10, and 14 days post infection. To monitor the replication of virus, reverse transcriptase (RT) activity in the supernatants was assayed using a commercially available Lenti-RT activity kit. (Cavidi Tech, Uppsala, Sweden). The amount of RT was determined with the aid of a regression line of standards. The results are presented as absorbance values (OD) and higher absorbance indicates a higher protein concentration and greater viral infection. Syncytium formation was also monitored by microscopic examination.

[3] = test system: HIV-1 isolate p7141 (high PI); assay: resistant HIV-1 isolates in PBMC, p24 ELISA; type: cell-based; conditions: GPG 100 μM, 14 days post infection
HIV-1 SF-2 virus strain = assay: stability in human blood and plasma by HIV-1 replication assay in HUT78 cells; type: in vitro ADME; conditions: incubated 1, 2 and 4 hours at 37° C. in human blood or plasma; final 20 μM or 100 μM; p24 day 7 and 14
Protocol: This example describes several studies that were performed to access the stability of small peptides in human blood and plasma. Accordingly, human blood was taken freshly and treated with EDTA. Plasma was separated by centrifuging at 2,500 rpm for 20 minutes. GPG-NH2 was added into blood or plasma at concentrations of 10 mM or 50 mM followed by incubation in 37° C. for 1, 2 and 4 hours, respectively. […] After incubation in 37° C., the GPG-NH2 containing blood was centrifuged at 2,500 rpm for 20 minutes to isolate plasma. Some of the plasma samples were treated with CaCl2 at concentration of 5 mM in 37° C. for 10 minutes followed by centrifuging at 13,000 rpm for 30 minutes and the supernatant are referred to as CaCl2 treated plasma. Then all the GPG-NH2 containing plasma samples were diluted in RPMI medium to give the final concentrations 20 μM or 100 μM of GPG-NH2 (500 fold dilutions) and were then used in HIV-1 replication assays.
The replication assays were performed on HUT78 cells and the HIV-1 SF-2 virus strain was used. Briefly, approximately 200,000 cells were resuspended in the diluted GPG-amide containing medium, plasma, or plasma from blood. The GPG-NH2 containing medium, plasma, or plasma from blood was incubated with the cells for either 1 hr, 2 hr, or 4 hr at 37° C. Subsequently, SF-2 virus was added at 25 TCID50. […]

NCCCC[C@H](NC(=O)CN)C(=O)NCC(N)=O [GKG-NH2, glycyl-lysyl-glycine amide] (H-Gly-Lys-Gly-NH2)
reduction of HIV-1 infectivity, p24 antigen in cell supernatants (HIV-1 [1]; 300 μM): ~100%
p24 (HIV-1 [1]; Day 7 HIV-1, 100 μM): 1830 pg/mL
p24 (OD) (HIV-1 [1]; Day 7 HIV-1, 100 μM): 0.566 × 10^1 OD
reduction (%) (HIV-1 [1]; Day 7 HIV-1, 100 μM): 95%
p24 (HIV-1 [1]; Day 7 HIV-1, 300 μM): 388 pg/mL
p24 (OD) (HIV-1 [1]; Day 7 HIV-1, 300 μM): 1.08 OD
reduction (%) (HIV-1 [1]; Day 7 HIV-1, 300 μM): 99%
p24 (HIV-1 [1]; Day 7 HIV-1, 1000 μM): 273 pg/mL
p24 (OD) (HIV-1 [1]; Day 7 HIV-1, 1000 μM): 0.79 OD
reduction (%) (HIV-1 [1]; Day 7 HIV-1, 1000 μM): 100%
p24 (HIV-1 [1]; Day 14 HIV-1, 100 μM): 551000 pg/mL
p24 (OD) (HIV-1 [1]; Day 14 HIV-1, 100 μM): 1.48 × 10^3 OD
reduction (%) (HIV-1 [1]; Day 14 HIV-1, 100 μM): 61%
p24 (HIV-1 [1]; Day 14 HIV-1, 300 μM): 870 pg/mL
p24 (OD) (HIV-1 [1]; Day 14 HIV-1, 300 μM): 0.33 × 10^1 OD
reduction (%) (HIV-1 [1]; Day 14 HIV-1, 300 μM): 100%
p24 (HIV-1 [1]; Day 14 HIV-1, 1000 μM): 240 pg/mL
p24 (OD) (HIV-1 [1]; Day 14 HIV-1, 1000 μM): 0.11 × 10^1 OD
reduction (%) (HIV-1 [1]; Day 14 HIV-1, 1000 μM): 100%
HIV-1 Syncytia (HIV-1 [2]; Experiment 1): neg
HIV-1 Syncytia (HIV-1 [2]; Experiment 2): neg

NCC(=O)N1CCC[C@H]1C(=O)NCC(N)=O [GPG-NH2, glycyl-prolyl-glycine amide] (H-Gly-Pro-Gly-NH2)
p24 (HIV-1 [1]; Day 7 HIV-1, 20 μM): 421 pg/mL
p24 (OD) (HIV-1 [1]; Day 7 HIV-1, 20 μM): 1.159 OD
reduction (%) (HIV-1 [1]; Day 7 HIV-1, 20 μM): 99%
p24 (HIV-1 [1]; Day 7 HIV-1, 100 μM): 160 pg/mL
p24 (OD) (HIV-1 [1]; Day 7 HIV-1, 100 μM): 0.508 OD
reduction (%) (HIV-1 [1]; Day 7 HIV-1, 100 μM): 100%
p24 (HIV-1 [1]; Day 7 HIV-1, 300 μM): 180 pg/mL
p24 (OD) (HIV-1 [1]; Day 7 HIV-1, 300 μM): 0.557 OD
reduction (%) (HIV-1 [1]; Day 7 HIV-1, 300 μM): 100%
p24 (HIV-1 [1]; Day 14 HIV-1, 20 μM): 40600 pg/mL
p24 (OD) (HIV-1 [1]; Day 14 HIV-1, 20 μM): 1.12 × 10^2 OD
reduction (%) (HIV-1 [1]; Day 14 HIV-1, 20 μM): 97%
p24 (HIV-1 [1]; Day 14 HIV-1, 100 μM): 663 pg/mL
p24 (OD) (HIV-1 [1]; Day 14 HIV-1, 100 μM): 1.76 OD
reduction (%) (HIV-1 [1]; Day 14 HIV-1, 100 μM): 100%
p24 (HIV-1 [1]; Day 14 HIV-1, 300 μM): 498 pg/mL
p24 (OD) (HIV-1 [1]; Day 14 HIV-1, 300 μM): 1.35 OD
reduction (%) (HIV-1 [1]; Day 14 HIV-1, 300 μM): 100%
% reduction [3]: (100%)
HIV-1 p24 [3]: <500 pg/mL
ability to inhibit HIV-1 after incubation in medium, plasma or blood (HIV-1 SF-2 virus strain): No significant difference
HIV-1 Syncytia (HIV-1 [2]; Experiment 1): neg
HIV-1 Syncytia (HIV-1 [2]; Experiment 2): neg

cystyl-glutaminyl-glycine amide [CQG-NH2]
reduction of HIV-1 infectivity, p24 antigen in cell supernatants (HIV-1 [1]; 300 μM): ~100%
p24 (HIV-1 [1]; Day 7 HIV-1, 100 μM): 5620 pg/mL
p24 (OD) (HIV-1 [1]; Day 7 HIV-1, 100 μM): 1.51 × 10^1 OD
reduction (%) (HIV-1 [1]; Day 7 HIV-1, 100 μM): 86%
p24 (HIV-1 [1]; Day 7 HIV-1, 300 μM): 1920 pg/mL
p24 (OD) (HIV-1 [1]; Day 7 HIV-1, 300 μM): 0.59 × 10^1 OD
reduction (%) (HIV-1 [1]; Day 7 HIV-1, 300 μM): 95%
p24 (HIV-1 [1]; Day 7 HIV-1, 1000 μM): 320 pg/mL
p24 (OD) (HIV-1 [1]; Day 7 HIV-1, 1000 μM): 0.91 OD
reduction (%) (HIV-1 [1]; Day 7 HIV-1, 1000 μM): 99%
p24 (HIV-1 [1]; Day 14 HIV-1, 100 μM): 1.47e+06 pg/mL
p24 (OD) (HIV-1 [1]; Day 14 HIV-1, 100 μM): 0.48 × 10^4 OD
reduction (%) (HIV-1 [1]; Day 14 HIV-1, 100 μM): 0%
p24 (HIV-1 [1]; Day 14 HIV-1, 300 μM): 2400 pg/mL
p24 (OD) (HIV-1 [1]; Day 14 HIV-1, 300 μM): 0.11 × 10^2 OD
reduction (%) (HIV-1 [1]; Day 14 HIV-1, 300 μM): 100%
p24 (HIV-1 [1]; Day 14 HIV-1, 1000 μM): 280 pg/mL
p24 (OD) (HIV-1 [1]; Day 14 HIV-1, 1000 μM): 0.13 × 10^1 OD
reduction (%) (HIV-1 [1]; Day 14 HIV-1, 1000 μM): 100%
HIV-1 Syncytia (HIV-1 [2]; Experiment 1): neg
HIV-1 Syncytia (HIV-1 [2]; Experiment 2): neg
